Results from patent US20150291610A1, “C20' Urea Derivatives of Vinca Alkaloids” (THE SCRIPPS RESEARCH INSTITUTE, priority 2012, published 2015).
Read-outs that look alike come from different tables or passages of the source.

Assays:
[1] = test system: HCT116/VM46 (vinblastine-resistant strain of HCT116, Pgp over-expression) cells; details: read-out: IC50 (nM) HCT116/VM46; reported in Leggans et al., Org. Lett. 2012; cited from earlier work
[2] = test system: HCT116 (human colorectal carcinoma) cells; test: Cell growth inhibition assay, HCT116; type: cell-based
Experimental: (§1) A population of cells (>1×10^6 cells/mL as determined with a hemocytometer) was diluted with an appropriate amount of Dulbecco-modified Eagle Medium (DMEM, Gibco) containing 10% fetal bovine serum (FBS, Gibco) to a final concentration of 30,000 cells/mL.
(§2) To each well of a 96-well plate (Corning Costar), 100 μL of the cell-media solution was added with a multichannel pipette. The cultures were incubated at 37° C. in an atmosphere of 5% CO2 and 95% humidified air for 24 hours. The test compounds were added to the plate as follows: test substances were diluted in DMSO to a concentration of 1 mM and 10-fold serial dilutions were performed on a separate 96-well plate. Fresh culture medium (100 μL) was added to each well of cells to constitute 200 μL of medium per well followed by 2 μL of each test agent. Compounds were tested in duplicate (n=2-8 times) at six concentrations between 0-1,000 nM or 0-10,000 nM. Following addition, cultures were incubated for an additional 72 hours.
(§3) The plates were incubated at 37° C. for either 5 minutes (L1210) or 15 minutes (HCT116 and HCT116/VM46).

[3] = test system: HCT116 (human colorectal carcinoma) cells; details: cited from earlier work; for IC50: reported in Leggans et al., Org. Lett. 2012
[4] = test system: L1210 (mouse lymphocytic leukemia) cells; details: reported in Leggans et al., Org. Lett. 2012; cited from earlier work
[5] = test system: HCT116/VM46 (vinblastine-resistant strain of HCT116, Pgp over-expression) cells; test: Cell growth inhibition assay, HCT116/VM46; details: for IC50: read-out: IC50 (nM) HCT116/VM46, resistant human colon cancer cell line, Pgp over-expression; for fold improvement over vinblastine, HCT116/VM46: relative to vinblastine
Experimental: as §1, §2, §3

[6] = test system: L1210 (mouse lymphocytic leukemia) cells; test: Cell growth inhibition assay, L1210; type: cell-based; details: L1210 murine leukemia cell line; avg of 4-16 determinations
Experimental: as §1, §2, §3

[7] = HCT116 human colon cancer cell line, avg of 4-16 determinations, read-out: IC50 (nM) HCT116

SMILES	IC50 [1] [nM]	IC50 [2, 7] [nM]	IC50 [3] [nM]	IC50 [4] [nM]	IC50 [5] [nM]	IC50 [6] [nM]	also measured
CC[C@]1(NC(N)=S)C[C@@H]2CN(CCc3c([nH]c4ccccc34)[C@@](C(=O)OC)(c3cc4c(cc3OC)N(C)[C@H]3[C@@](O)(C(=O)OC)[C@H](OC(C)=O)[C@]5(CC)C=CCN6CC[C@]43[C@@H]65)C2)C1 [Compound 12]	2000	7.7	7.7	55	2000		
CC[C@]1(O)C[C@@H]2CN(CCc3c([nH]c4ccc(F)cc34)[C@@](C(=O)OC)(c3cc4c(cc3OC)N(C)[C@H]3[C@@](O)(C(=O)OC)[C@H](OC(C)=O)[C@]5(CC)C=CCN6CC[C@]43[C@@H]65)C2)C1 [Compound 48, reference compound]		0.8			80		fold improvement in activity over vinblastine ([3]; Gotoh et al., ACS Med. Chem. Lett. 2011): 8 fold
CCC1(N=[N+]=[N-])CC2CN(CCc3c([nH]c4ccccc34)C(C(=O)OC)(c3cc4c(cc3OC)N(C)C3C(O)(C(=O)OC)C(OC(C)=O)C5(CC)C=CCN6CCC43C65)C2)C1 (stereo not drawn) [Compound N3]	5500		690	670			
CCC1(NC(=O)NC(=O)C(Cl)(Cl)Cl)CC2CN(CCc3c([nH]c4ccccc34)C(C(=O)OC)(c3cc4c(cc3OC)N(C)C3C(O)(C(=O)OC)C(OC(C)=O)C5(CC)C=CCN6CCC43C65)C2)C1 (stereo not drawn) [NHCONHCOCCl3]	1600		6	45			
CCC1(NC=O)CC2CN(CCc3c([nH]c4ccccc34)C(C(=O)OC)(c3cc4c(cc3OC)N(C)C3C(O)(C(=O)OC)C(OC(C)=O)C5(CC)C=CCN6CCC43C65)C2)C1 (stereo not drawn) [NHCHO]	6500		85	65			
CCC1(SC#N)CC2CN(CCc3c([nH]c4ccccc34)C(C(=O)OC)(c3cc4c(cc3OC)N(C)C3C(O)(C(=O)OC)C(OC(C)=O)C5(CC)C=CCN6CCC43C65)C2)C1 (stereo not drawn) [SCN]	2900		550	560			
CC[C@]1(NC(=O)NCCc2ccccc2)C[C@@H]2CN(CCc3c([nH]c4ccccc34)[C@@](C(=O)OC)(c3cc4c(cc3OC)N(C)[C@H]3[C@@](O)(C(=O)OC)[C@H](OC(C)=O)[C@]5(CC)C=CCN6CC[C@]43[C@@H]65)C2)C1 [Compound 32]		6.3			590	6.3	
CCC1(NC(=O)NC)CC2CN(CCc3c([nH]c4ccccc34)C(C(=O)OC)(c3cc4c(cc3OC)N(C)C3C(O)(C(=O)OC)C(OC(C)=O)C5(CC)C=CCN6CCC43C65)C2)C1 (stereo not drawn) [Compound 14]		0.82			530	5.7	
CC[C@]1(N=C=S)C[C@@H]2CN(CCc3c([nH]c4ccccc34)[C@@](C(=O)OC)(c3cc4c(cc3OC)N(C)[C@H]3[C@@](O)(C(=O)OC)[C@H](OC(C)=O)[C@]5(CC)C=CCN6CC[C@]43[C@@H]65)C2)C1 [Compound 5, 20′-isothiocyano-vinblastine]	7000		530	590			
CCC1(NC(=O)OC)CC2CN(CCc3c([nH]c4ccccc34)C(C(=O)OC)(c3cc4c(cc3OC)N(C)C3C(O)(C(=O)OC)C(OC(C)=O)C5(CC)C=CCN6CCC43C65)C2)C1 (stereo not drawn) [Compound 10]	2600		75	50			
CC[C@]1(NC(=O)NC2CC2)C[C@@H]2CN(CCc3c([nH]c4ccccc34)[C@@](C(=O)OC)(c3cc4c(cc3OC)N(C)[C@H]3[C@@](O)(C(=O)OC)[C@H](OC(C)=O)[C@]5(CC)C=CCN6CC[C@]43[C@@H]65)C2)C1 [Compound 18]		0.73			85	3.9	fold improvement over vinblastine, HCT116/VM46 [5]: 10 fold
CC[C@]1(NC(=O)NCCO)C[C@@H]2CN(CCc3c([nH]c4ccccc34)[C@@](C(=O)OC)(c3cc4c(cc3OC)N(C)[C@H]3[C@@](O)(C(=O)OC)[C@H](OC(C)=O)[C@]5(CC)C=CCN6CC[C@]43[C@@H]65)C2)C1 [Compound 22]		8.8			> 1000	48	
CC[C@]1(NC(=O)Nc2cccc(OC)c2)C[C@@H]2CN(CCc3c([nH]c4ccccc34)[C@@](C(=O)OC)(c3cc4c(cc3OC)N(C)[C@H]3[C@@](O)(C(=O)OC)[C@H](OC(C)=O)[C@]5(CC)C=CCN6CC[C@]43[C@@H]65)C2)C1 [Compound 29]					80	5.4	fold more potent than vinblastine, HCT116 ([2]; relative to vinblastine): ~10 fold; IC50 ([2]; text values in pM, read-out: IC50 HCT116): 0.77 nM; fold improvement over vinblastine, HCT116/VM46 [5]: 10 fold
CC[C@]1(NC(=O)NCc2ccccn2)C[C@@H]2CN(CCc3c([nH]c4ccccc34)[C@@](C(=O)OC)(c3cc4c(cc3OC)N(C)[C@H]3[C@@](O)(C(=O)OC)[C@H](OC(C)=O)[C@]5(CC)C=CCN6CC[C@]43[C@@H]65)C2)C1 [Compound 33]		5.6			670	24	
CC1(C)CCCC(C)(C)N1[O] [TEMPO]	5600		3800	4000			
CCCCNC(=O)N[C@@]1(CC)C[C@@H]2CN(CCc3c([nH]c4ccccc34)[C@@](C(=O)OC)(c3cc4c(cc3OC)N(C)[C@H]3[C@@](O)(C(=O)OC)[C@H](OC(C)=O)[C@]5(CC)C=CCN6CC[C@]43[C@@H]65)C2)C1 [Compound 19]		4.6			270	5.7	
CCC1(NC(=O)C(F)(F)F)CC2CN(CCc3c([nH]c4ccccc34)C(C(=O)OC)(c3cc4c(cc3OC)N(C)C3C(O)(C(=O)OC)C(OC(C)=O)C5(CC)C=CCN6CCC43C65)C2)C1 (stereo not drawn) [NHCOCF3]	8100		690	660			
CCC1CC2CN(CCc3c([nH]c4ccccc34)C(C(=O)OC)(c3cc4c(cc3OC)N(C)C3C(O)(C(=O)OC)C(OC(C)=O)C5(CC)C=CCN6CCC43C65)C2)C1 (stereo not drawn) [Compound 3, 20′-deoxyvinblastine]	600		60	50			
CC[C@]1(NC(=O)N2Cc3ccc(OC)cc3C2)C[C@@H]2CN(CCc3c([nH]c4ccccc34)[C@@](C(=O)OC)(c3cc4c(cc3OC)N(C)[C@H]3[C@@](O)(C(=O)OC)[C@H](OC(C)=O)[C@]5(CC)C=CCN6CC[C@]43[C@@H]65)C2)C1 [Compound 59]		0.69			8.7	0.61	
CC[C@]1(NC(=O)NCc2ccccc2)C[C@@H]2CN(CCc3c([nH]c4ccccc34)[C@@](C(=O)OC)(c3cc4c(cc3OC)N(C)[C@H]3[C@@](O)(C(=O)OC)[C@H](OC(C)=O)[C@]5(CC)C=CCN6CC[C@]43[C@@H]65)C2)C1 [Compound 31]		7.3			740	6.4	
CC[C@]1(NC(=O)N2CCCCC2)C[C@@H]2CN(CCc3c([nH]c4ccccc34)[C@@](C(=O)OC)(c3cc4c(cc3OC)N(C)[C@H]3[C@@](O)(C(=O)OC)[C@H](OC(C)=O)[C@]5(CC)C=CCN6CC[C@]43[C@@H]65)C2)C1 [Compound 42]		3.9			50	5.5	activity difference between sensitive HCT116 and vinblastine-resistant HCT116/VM46 ([5]; HCT116/VM46 vs HCT116): 10 fold
CCC1(NC(C)=O)CC2CN(CCc3c([nH]c4ccccc34)C(C(=O)OC)(c3cc4c(cc3OC)N(C)C3C(O)(C(=O)OC)C(OC(C)=O)C5(CC)C=CCN6CCC43C65)C2)C1 (stereo not drawn) [Compound 9]	7500		90	65			
CC[C@]1(NC(=O)N2CCC(c3ccccc3)CC2)C[C@@H]2CN(CCc3c([nH]c4ccccc34)[C@@](C(=O)OC)(c3cc4c(cc3OC)N(C)[C@H]3[C@@](O)(C(=O)OC)[C@H](OC(C)=O)[C@]5(CC)C=CCN6CC[C@]43[C@@H]65)C2)C1 [Compound 56]		3.1			55	5.3	
